# Measurements published in patent US9050341B2, “Methods of treating drug resistant and other tumors by administering 6,7-dialkoxy quinazoline derivatives” (NATCO PHARMA LIMITED, priority 2009, dated 2015).
# Key:
# Experiment in all cases: KinomeScan kinase profiling
# Format in all cases: binding
# ALK = molecular target: T1, ALK (Homo sapiens, UniProt Q9UM73)
# T1 construct: host or cells: E. coli host derived from BL21 (T7 phage lysate)
# Method in brief: (§1)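 Kinases were expressed as T7 phage fusions in a BL21-derived E. coli host and the cleared lysates were used. Ligand beads were blocked with biotin and buffer (1% BSA, 0.05% Tween 20, 1 mM DTT). Compounds came from 40× DMSO stocks, and phage in the eluates was titred by qPCR.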
# CDK5 = molecular target: T2, CDK5 (Homo sapiens, UniProt Q00535)
# T2 construct: host or cells: T7 phage in E. coli (BL21-derived)
# T2 sequence (Q00535 whole entry): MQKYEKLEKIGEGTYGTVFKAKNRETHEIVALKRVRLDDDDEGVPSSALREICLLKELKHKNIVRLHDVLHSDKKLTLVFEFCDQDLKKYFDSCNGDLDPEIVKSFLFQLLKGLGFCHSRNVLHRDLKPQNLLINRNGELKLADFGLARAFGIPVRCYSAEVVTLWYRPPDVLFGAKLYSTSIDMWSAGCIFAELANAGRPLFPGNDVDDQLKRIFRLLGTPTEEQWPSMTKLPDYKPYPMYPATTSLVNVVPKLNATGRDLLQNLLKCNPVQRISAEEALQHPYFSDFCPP
# Method in brief: as §1
# CDKL2 = molecular target: T3, CDKL2 (Homo sapiens, UniProt Q92772)
# T3 construct: host or cells: T7 phage in E. coli (BL21-derived)
# Method in brief: as §1
# CSNK1D = molecular target: T4, CSNK1D (Homo sapiens, UniProt P48730)
# T4 construct: host or cells: T7 phage in E. coli (BL21-derived)
# T4 sequence (P48730 whole entry): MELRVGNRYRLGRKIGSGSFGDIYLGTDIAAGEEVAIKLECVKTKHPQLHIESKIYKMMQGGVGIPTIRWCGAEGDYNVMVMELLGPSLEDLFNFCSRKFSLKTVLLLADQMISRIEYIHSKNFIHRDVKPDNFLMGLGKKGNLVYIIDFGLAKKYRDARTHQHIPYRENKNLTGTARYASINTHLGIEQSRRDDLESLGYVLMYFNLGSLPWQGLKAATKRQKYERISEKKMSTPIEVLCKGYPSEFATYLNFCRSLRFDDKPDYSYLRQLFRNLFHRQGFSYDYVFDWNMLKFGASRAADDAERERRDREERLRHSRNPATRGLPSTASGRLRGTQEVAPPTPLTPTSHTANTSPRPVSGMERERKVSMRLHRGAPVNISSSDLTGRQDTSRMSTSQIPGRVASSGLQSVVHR
# Method in brief: as §1
# CSNK2A1 = molecular target: T5, CSNK2A1 (Homo sapiens, UniProt P68400)
# T5 construct: purchased Ambit Biosciences Corp (KinomeScan); host or cells: T7 phage in E. coli host derived from BL21
# Method in brief: as §1
# [1] = molecular target: T6, EGFR (L747-E749del, A750P) (Homo sapiens, UniProt P00533, A750P/DEL747-749)
# T6 construct: purchased Ambit Biosciences Corp (KinomeScan); host or cells: T7 phage in E. coli host derived from BL21
# Method in brief: as §1
# FAK = molecular target: T7, FAK (Homo sapiens, UniProt Q05397)
# T7 construct: host or cells: E. coli host derived from BL21, T7 phage lysate
# Method in brief: as §1
# IRAK3 = molecular target: T8, IRAK3 (Homo sapiens, UniProt Q9Y616)
# T8 construct: host or cells: T7 phage in E. coli host derived from BL21
# Method in brief: as §1
# [2] = molecular target: T9, JAK3 (JH1domain-catalytic) (Homo sapiens, UniProt P52333)
# T9 construct: JAK3 (JH1domain-catalytic); host or cells: T7 phage in E. coli host derived from BL21
# T9 sequence (P52333 822-1111 limits assumed): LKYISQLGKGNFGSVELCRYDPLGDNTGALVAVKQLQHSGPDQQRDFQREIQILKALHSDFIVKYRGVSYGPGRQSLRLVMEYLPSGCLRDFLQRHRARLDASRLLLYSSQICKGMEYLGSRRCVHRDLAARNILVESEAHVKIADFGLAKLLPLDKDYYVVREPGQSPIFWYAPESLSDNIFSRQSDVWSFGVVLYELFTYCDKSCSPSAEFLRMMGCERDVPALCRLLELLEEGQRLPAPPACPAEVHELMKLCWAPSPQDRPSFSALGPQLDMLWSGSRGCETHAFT
# Method in brief: as §1
# JNK3 = molecular target: T10, JNK3 (Homo sapiens, UniProt P53779)
# T10 construct: host or cells: T7 phage in E. coli host derived from BL21
# Method in brief: as §1
# MKNK1 = molecular target: T11, MKNK1 (Homo sapiens, UniProt Q9BUB5)
# T11 construct: host or cells: T7 phage in E. coli host derived from BL21
# Method in brief: as §1
# MST1 = molecular target: T12, MST1 (Homo sapiens, UniProt Q13043)
# T12 construct: host or cells: T7 phage in E. coli host derived from BL21
# Method in brief: as §1
# MST4 = molecular target: T13, MST4 (Homo sapiens, UniProt Q9P289)
# T13 construct: host or cells: T7 phage in E. coli host derived from BL21
# Method in brief: as §1
# MYLK = molecular target: T14, MYLK (Homo sapiens, UniProt Q15746)
# T14 construct: host or cells: T7 phage in E. coli host derived from BL21
# Method in brief: as §1
# PIM2 = molecular target: T15, PIM2 (Homo sapiens, UniProt Q9P1W9)
# T15 construct: purchased Ambit Biosciences Corp (KinomeScan); host or cells: E. coli host derived from BL21, infected with T7 phage
# Method in brief: as §1
# PKN2 = molecular target: T16, PKN2 (Homo sapiens, UniProt Q16513)
# T16 construct: purchased Ambit Biosciences Corp (KinomeScan); host or cells: E. coli host derived from BL21, infected with T7 phage
# Method in brief: as §1
# RAF1 = molecular target: T17, RAF1 (Homo sapiens, UniProt P04049)
# T17 construct: host or cells: E. coli host derived from BL21, T7 phage lysate
# Method in brief: as §1
# RET (M918T) = molecular target: T18, RET (M918T) (Homo sapiens, UniProt P07949, M918T)
# T18 construct: host or cells: E. coli host derived from BL21, T7 phage lysate
# T18 sequence (P07949 29-1114 M918T): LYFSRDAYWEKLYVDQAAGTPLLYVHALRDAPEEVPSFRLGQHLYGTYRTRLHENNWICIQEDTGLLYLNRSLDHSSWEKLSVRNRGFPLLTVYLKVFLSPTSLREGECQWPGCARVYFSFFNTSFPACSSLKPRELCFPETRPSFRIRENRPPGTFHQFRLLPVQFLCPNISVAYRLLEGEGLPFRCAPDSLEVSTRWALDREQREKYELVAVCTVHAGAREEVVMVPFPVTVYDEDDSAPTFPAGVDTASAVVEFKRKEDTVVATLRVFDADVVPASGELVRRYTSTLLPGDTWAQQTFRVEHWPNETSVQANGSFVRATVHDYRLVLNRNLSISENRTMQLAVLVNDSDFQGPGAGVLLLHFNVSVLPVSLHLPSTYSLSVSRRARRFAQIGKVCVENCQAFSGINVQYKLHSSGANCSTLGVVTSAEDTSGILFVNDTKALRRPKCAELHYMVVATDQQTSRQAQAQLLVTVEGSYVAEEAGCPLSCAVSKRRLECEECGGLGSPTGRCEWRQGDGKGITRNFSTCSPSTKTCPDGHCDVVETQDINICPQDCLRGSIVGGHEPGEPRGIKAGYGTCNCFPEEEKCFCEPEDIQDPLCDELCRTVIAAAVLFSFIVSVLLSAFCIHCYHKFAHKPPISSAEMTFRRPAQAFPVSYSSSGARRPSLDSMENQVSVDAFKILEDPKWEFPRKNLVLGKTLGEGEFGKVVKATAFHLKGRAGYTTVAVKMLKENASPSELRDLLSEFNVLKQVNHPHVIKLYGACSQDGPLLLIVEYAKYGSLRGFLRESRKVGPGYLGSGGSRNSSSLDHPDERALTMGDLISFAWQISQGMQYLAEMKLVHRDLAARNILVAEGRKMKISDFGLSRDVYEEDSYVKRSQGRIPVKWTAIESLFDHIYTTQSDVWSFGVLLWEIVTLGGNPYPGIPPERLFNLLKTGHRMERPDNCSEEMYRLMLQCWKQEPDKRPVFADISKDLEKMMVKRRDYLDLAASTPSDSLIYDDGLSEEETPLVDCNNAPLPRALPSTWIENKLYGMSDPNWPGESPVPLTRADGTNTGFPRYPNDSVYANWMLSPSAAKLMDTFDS
# Method in brief: as §1
# RIOK1 = molecular target: T19, RIOK1 (Homo sapiens, UniProt Q9BRS2)
# T19 construct: host or cells: E. coli host derived from BL21, T7 phage lysate
# Method in brief: as §1
# RIPK1 = molecular target: T20, RIPK1 (Homo sapiens, UniProt Q13546)
# T20 construct: host or cells: E. coli host derived from BL21, T7 phage lysate
# T20 sequence (Q13546 whole entry): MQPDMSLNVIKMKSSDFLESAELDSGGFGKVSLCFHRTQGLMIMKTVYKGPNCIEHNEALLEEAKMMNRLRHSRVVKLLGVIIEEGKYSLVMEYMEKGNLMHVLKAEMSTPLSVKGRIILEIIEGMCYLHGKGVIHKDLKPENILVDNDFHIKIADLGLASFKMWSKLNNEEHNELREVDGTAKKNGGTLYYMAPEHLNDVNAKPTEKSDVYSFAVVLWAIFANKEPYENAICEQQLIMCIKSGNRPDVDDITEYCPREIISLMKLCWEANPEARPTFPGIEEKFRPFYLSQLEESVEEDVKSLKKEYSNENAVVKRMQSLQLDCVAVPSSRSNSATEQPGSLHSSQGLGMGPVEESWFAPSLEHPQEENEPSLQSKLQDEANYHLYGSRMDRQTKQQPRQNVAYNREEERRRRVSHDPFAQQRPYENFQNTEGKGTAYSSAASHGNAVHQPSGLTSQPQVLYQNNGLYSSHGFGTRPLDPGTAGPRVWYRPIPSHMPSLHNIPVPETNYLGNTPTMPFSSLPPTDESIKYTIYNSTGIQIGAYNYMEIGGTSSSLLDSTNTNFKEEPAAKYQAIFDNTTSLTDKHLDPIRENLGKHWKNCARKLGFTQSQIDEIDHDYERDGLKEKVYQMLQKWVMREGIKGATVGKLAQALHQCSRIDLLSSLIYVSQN
# Method in brief: as §1
# [3] = molecular target: T21, RPS6KA4 (Kin.Dom.-1-N-terminal) (Homo sapiens, UniProt O75676)
# T21 construct: RPS6KA4 (Kin.Dom.-1-N-terminal); host or cells: E. coli host derived from BL21, T7 phage lysate
# Method in brief: as §1
# TESK1 = molecular target: T22, TESK1 (Homo sapiens, UniProt Q15569)
# T22 construct: host or cells: E. coli host derived from the BL21 strain, T7 phage lysate
# T22 sequence (Q15569 whole entry): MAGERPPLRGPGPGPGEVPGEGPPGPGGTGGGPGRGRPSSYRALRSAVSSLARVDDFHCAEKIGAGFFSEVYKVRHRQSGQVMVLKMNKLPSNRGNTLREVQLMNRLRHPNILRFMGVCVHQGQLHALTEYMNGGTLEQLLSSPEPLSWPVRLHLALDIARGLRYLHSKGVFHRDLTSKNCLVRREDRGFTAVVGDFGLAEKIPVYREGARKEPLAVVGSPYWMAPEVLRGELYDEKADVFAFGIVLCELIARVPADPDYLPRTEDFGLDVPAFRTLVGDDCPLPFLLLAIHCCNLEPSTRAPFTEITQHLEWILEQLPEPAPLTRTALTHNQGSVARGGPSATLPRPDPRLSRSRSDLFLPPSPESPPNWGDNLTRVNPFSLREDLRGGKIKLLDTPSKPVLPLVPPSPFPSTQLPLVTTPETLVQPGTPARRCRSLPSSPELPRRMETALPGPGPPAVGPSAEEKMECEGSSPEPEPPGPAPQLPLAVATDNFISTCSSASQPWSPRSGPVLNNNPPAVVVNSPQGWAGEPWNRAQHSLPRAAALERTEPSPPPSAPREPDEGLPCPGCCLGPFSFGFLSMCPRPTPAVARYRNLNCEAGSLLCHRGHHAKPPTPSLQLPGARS
# Method in brief: as §1
# TRKA = molecular target: T23, TRKA (Homo sapiens, UniProt P04629)
# T23 construct: purchased Ambit Biosciences Corp (KinomeScan); host or cells: E. coli host derived from the BL21 strain (T7 phage lysate)
# Method in brief: as §1
# T1 sequence (Q9UM73 19-1620): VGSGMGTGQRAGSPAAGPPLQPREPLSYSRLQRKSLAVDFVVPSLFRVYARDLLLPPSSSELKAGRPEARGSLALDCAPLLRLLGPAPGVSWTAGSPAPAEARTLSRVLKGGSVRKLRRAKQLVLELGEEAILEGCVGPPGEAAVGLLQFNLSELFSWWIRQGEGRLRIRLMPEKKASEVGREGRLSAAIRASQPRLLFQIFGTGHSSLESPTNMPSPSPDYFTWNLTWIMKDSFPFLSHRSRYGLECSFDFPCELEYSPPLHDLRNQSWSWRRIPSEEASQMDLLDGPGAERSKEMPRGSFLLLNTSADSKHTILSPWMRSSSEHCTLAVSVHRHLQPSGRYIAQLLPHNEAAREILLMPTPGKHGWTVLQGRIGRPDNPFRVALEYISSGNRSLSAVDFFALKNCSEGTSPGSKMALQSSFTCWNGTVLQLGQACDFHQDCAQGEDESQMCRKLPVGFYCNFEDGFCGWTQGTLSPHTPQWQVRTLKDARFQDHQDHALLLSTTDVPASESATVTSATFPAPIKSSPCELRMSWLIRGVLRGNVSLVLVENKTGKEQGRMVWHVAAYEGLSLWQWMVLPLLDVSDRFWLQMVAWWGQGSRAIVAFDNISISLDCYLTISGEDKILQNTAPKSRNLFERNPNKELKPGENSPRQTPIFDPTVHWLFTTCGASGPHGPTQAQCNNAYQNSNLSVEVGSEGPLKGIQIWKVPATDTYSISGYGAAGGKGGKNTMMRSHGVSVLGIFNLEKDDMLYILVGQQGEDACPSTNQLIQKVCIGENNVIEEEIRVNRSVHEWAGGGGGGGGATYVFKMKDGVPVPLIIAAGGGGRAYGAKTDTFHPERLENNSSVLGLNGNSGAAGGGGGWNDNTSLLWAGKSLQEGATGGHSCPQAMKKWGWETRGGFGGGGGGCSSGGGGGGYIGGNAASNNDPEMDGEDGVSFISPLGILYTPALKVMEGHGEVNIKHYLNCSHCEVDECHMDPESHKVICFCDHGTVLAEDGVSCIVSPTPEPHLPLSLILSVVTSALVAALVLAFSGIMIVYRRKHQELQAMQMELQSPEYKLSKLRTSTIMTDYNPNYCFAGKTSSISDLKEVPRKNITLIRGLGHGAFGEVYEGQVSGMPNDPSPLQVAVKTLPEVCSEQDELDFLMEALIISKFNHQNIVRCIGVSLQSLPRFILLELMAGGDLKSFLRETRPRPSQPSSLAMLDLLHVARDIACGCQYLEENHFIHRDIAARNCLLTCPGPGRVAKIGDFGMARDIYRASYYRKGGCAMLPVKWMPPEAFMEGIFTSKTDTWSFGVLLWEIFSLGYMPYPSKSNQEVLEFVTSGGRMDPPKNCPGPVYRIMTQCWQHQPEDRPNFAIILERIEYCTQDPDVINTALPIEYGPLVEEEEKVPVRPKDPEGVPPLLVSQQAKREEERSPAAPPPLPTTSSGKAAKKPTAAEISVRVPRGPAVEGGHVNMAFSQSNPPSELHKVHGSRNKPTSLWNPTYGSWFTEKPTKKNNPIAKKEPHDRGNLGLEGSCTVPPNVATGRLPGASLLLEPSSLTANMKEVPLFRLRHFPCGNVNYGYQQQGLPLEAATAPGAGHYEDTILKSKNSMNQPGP
smiles,measurement,setting,value
"C#Cc1cccc(Nc2ncnc3cc(OC)c(OCCCN4CCOCC4)cc23)c1 [NRC-2694, N-(3-ethylnylphenyl)-7-methoxy-6-[3-(4-morpholinyl)propoxy]-4-quinazolinamine]",% Ctrl @ 10000 nM,ALK,10 % Ctrl
same,% Ctrl @ 10000 nM,CDK5,100 % Ctrl
same,% Ctrl @ 10000 nM,CDKL2,67 % Ctrl
same,% Ctrl @ 10000 nM,CSNK1D,25 % Ctrl
same,% Ctrl @ 10000 nM,CSNK2A1,56 % Ctrl
same,% Ctrl @ 10000 nM,[1],0 % Ctrl
same,% Ctrl @ 10000 nM,FAK,85 % Ctrl
same,% Ctrl @ 10000 nM,IRAK3,25 % Ctrl
same,% Ctrl @ 10000 nM,[2],72 % Ctrl
same,% Ctrl @ 10000 nM,JNK3,77 % Ctrl
same,% Ctrl @ 10000 nM,MKNK1,1.2 % Ctrl
same,% Ctrl @ 10000 nM,MST1,100 % Ctrl
same,% Ctrl @ 10000 nM,MST4,29 % Ctrl
same,% Ctrl @ 10000 nM,MYLK,62 % Ctrl
same,% Ctrl @ 10000 nM,PIM2,83 % Ctrl
same,% Ctrl @ 10000 nM,PKN2,31 % Ctrl
same,% Ctrl @ 10000 nM,RAF1,100 % Ctrl
same,% Ctrl @ 10000 nM,RET (M918T),37 % Ctrl
same,% Ctrl @ 10000 nM,RIOK1,36 % Ctrl
same,% Ctrl @ 10000 nM,RIPK1,100 % Ctrl
same,% Ctrl @ 10000 nM,[3],84 % Ctrl
same,% Ctrl @ 10000 nM,TESK1,83 % Ctrl
same,% Ctrl @ 10000 nM,TRKA,100 % Ctrl
